Data from ChEMBL document CHEMBL5390290, “Discovery of Anti-SARS-CoV-2 Nsp9 Binders from Natural Products by a Native Mass Spectrometry Approach” (J Nat Prod, 2023).
Active and inactive are the calls of the source. The rule behind the calls is not given here.

Legend:
[1] = molecular target: Replicase polyprotein 1ab (Severe acute respiratory syndrome coronavirus 2) (UniProt P0DTD1); assay: Binding affinity to recombinant SARS-CoV-2 Nsp9 at 10 to 50 uM by Mass spectrometry analysis; details: dose 10-50 µM
[2] = molecular target: Replicase polyprotein 1ab (Severe acute respiratory syndrome coronavirus 2) (UniProt P0DTD1); assay: Binding affinity to recombinant SARS-CoV-2 Nsp9 at 10 uM by Mass spectrometry analysis relative to control
[3] = molecular target: Replicase polyprotein 1ab (Severe acute respiratory syndrome coronavirus 2) (UniProt P0DTD1); assay: Binding affinity to recombinant SARS-CoV-2 Nsp9 at 50 uM by Mass spectrometry analysis relative to control
[4] = molecular target: Replicase polyprotein 1ab (Severe acute respiratory syndrome coronavirus 2) (UniProt P0DTD1); assay: Binding affinity to recombinant SARS-CoV-2 Nsp9 at 50 uM by Mass spectrometry analysis
[5] = molecular target: Replicase polyprotein 1ab (Severe acute respiratory syndrome coronavirus 2) (UniProt P0DTD1); assay: Binding affinity to SARS-CoV-2 Nsp9 at 25 uM by LC-MS/MS analysis relative to control
[6] = molecular target: Replicase polyprotein 1ab (Severe acute respiratory syndrome coronavirus 2, UniProt P0DTD1); assay: Binding affinity to recombinant SARS-CoV-2 Nsp9 assessed as dissociation constant by Mass spectrometry analysis

Row | Compound | Activity [1] | Activity [2] [%] | Activity [3] [%] | further results
1 | C=C1C[C@]23C4C5N(C)C[C@]6(C)C[C@H](O)C[C@@]5([C@@H]2[C@H](OC(=O)/C(C)=C/C)[C@H](OC(=O)/C(C)=C/C)[C@H]14)[C@]6(O)[C@@H](O)[C@@H]3O (stereo partly drawn) | inactive |  |  | 
2 | C=C1C(=O)[C@]23[C@H](O)[C@@H]1[C@@H](O)C[C@H]2[C@]12CCCC(C)(C)[C@H]1[C@H](O)[C@@]3(O)OC2 | inactive | 0 | 0 | 
3 | C=C1C(=O)[C@@]23[C@H]4O[C@H]5O[C@]2(O)[C@@H](O)[C@@H]2C(C)(C)CC[C@H](O)[C@]52[C@@H]3CC[C@H]14 |  | 0.27 | 1 | 
4 | C=C1C[C@]23C[C@@]1(O)CC[C@H]2[C@@]12C=C[C@H](O)[C@](C)(C(=O)O1)[C@H]2[C@@H]3C(=O)O |  |  |  | Activity [4]: Active
5 | C=C1C(=O)[C@]23[C@H](O)[C@@H]1CC[C@H]2[C@@]12CO[C@@]3(O)[C@@H](O)[C@@H]1C(C)(C)CC[C@@H]2O |  | 0.71 | 1 | Activity [5]: Active
6 | C=C1[C@H]2CC[C@H]3[C@@]45CO[C@](O)([C@@H](O)[C@@H]4C(C)(C)CC[C@@H]5O)[C@@]3([C@@H]1O)[C@@H]2O |  | 2 | 16 | 
7 | C=C1C[C@]23C4C5N(C)C[C@]6(C)C[C@H](O)C[C@@]5([C@@H]2[C@H](OC(=O)c2ccc(O)cc2)[C@H](OC(=O)/C(C)=C/C)[C@H]14)[C@]6(O)[C@@H](O)[C@@H]3O (stereo partly drawn) | inactive |  |  | 
8 | C=C1C(=O)[C@]23[C@@H](O)[C@H]1CC[C@H]2[C@@]12COC3(O)C[C@@H]1C(C)(C)CC[C@@H]2O |  | 0 | 0.04 | 
9 | C=C1[C@@H]2C[C@@]3([C@@H]1O)[C@@H](CC2=O)[C@@]12[C@@H]4[C@@H]3C[C@@H]1[C@@](C)(CC[C@@H]2O)CN4CC | inactive |  |  | 
10 | CC(C)[C@]1(O)C(OC(=O)c2ccc[nH]2)[C@@]2(O)[C@@]3(C)C[C@]4(O)O[C@@]5([C@H](O)[C@@H](C)CC[C@]35O)[C@@]2(O)[C@@]14C (stereo partly drawn) |  |  |  | Kd [6]: 48 µM; Activity [5]: Active
11 | C=C1C(=O)[C@]23[C@H](O)[C@@H]1C[C@@H](O)[C@H]2[C@]12CCCC(C)(C)[C@H]1[C@H](O)[C@@]3(O)OC2 |  | 0.15 | 0.89 | 
12 | C=C1C[C@]23C4C5N(C)C[C@]6(C)C[C@H](O)C[C@@]5([C@@H]2[C@H](OC(=O)/C(C)=C/CO)[C@H](OC(=O)/C(C)=C/C)[C@H]14)[C@]6(O)[C@@H](O)[C@@H]3O (stereo partly drawn) | inactive |  |  | 
13 | C=C1C(=O)[C@]23[C@H](O)[C@@H]1CC[C@H]2[C@@]12C(O)[C@@]3(O)C(=O)[C@@H]1C(C)(C)CC[C@@H]2O (stereo partly drawn) |  | 0.05 | 0.38 | 
